Reference: ChEMBL document CHEMBL1201862, “PubChem BioAssay data set” (2004)
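1) Cells in 96-well plates. 2) Compound, 48 h, 5 concentrations. 3) Linear interpolation between surrounding doses. 4) Unreached endpoint = highest concentration. GI50: concentration for 50% inhibition of growth.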 Activity calls are given as the source filed them. Cut-off read from the data, not from the text of the source: active = GI50 up to about 1.1 µM and inactive = higher.

How the values were obtained:
Assay in all cases: NCI-60 cell line screen, 48 h
A549 = test system: A549
BT-549 = test system: BT-549
HCC 2998 = test system: HCC 2998
HCT-116 = test system: HCT-116
HOP-62 = test system: HOP-62
KM12 = test system: KM12
M14 = test system: M14
MDA-MB-231 = test system: MDA-MB-231
MOLT-4 = test system: MOLT-4
NCI-H522 = test system: NCI-H522
NCI/ADR-RES = test system: NCI/ADR-RES
OVCAR-4 = test system: OVCAR-4
RXF 393 = test system: RXF 393
SF-268 = test system: SF-268
SK-MEL-2 = test system: SK-MEL-2
SK-MEL-5 = test system: SK-MEL-5
SNB-19 = test system: SNB-19
SR = test system: SR
SW-620 = test system: SW-620
UACC-257 = test system: UACC-257

Measured: GI50

CCC(=O)n1c(=O)n(-c2ccc([N+](=O)[O-])cc2)c(=O)n1C(=O)CC
inactive: A549 > 100 µM | BT-549 > 100 µM | HCC 2998 > 100 µM | HCT-116 > 100 µM | HOP-62 > 100 µM | KM12 > 100 µM | M14 > 100 µM | MDA-MB-231 > 100 µM | MOLT-4 > 100 µM | NCI-H522 > 100 µM | NCI/ADR-RES > 100 µM | OVCAR-4 > 100 µM | RXF 393 > 100 µM | SF-268 > 100 µM | SK-MEL-2 > 100 µM | SK-MEL-5 > 100 µM | SNB-19 > 100 µM | SR > 100 µM | SW-620 > 100 µM | UACC-257 > 100 µM

CCOP(=O)(OCC)C(=C1C=C(C(C)(C)C)C(=O)C(C(C)(C)C)=C1)P(=O)(OCC)OCC
inactive: A549 > 10 µM | BT-549 2.86 µM | HCC 2998 > 10 µM | HCT-116 2.54 µM | HOP-62 > 10 µM | KM12 > 10 µM | M14 1.97 µM | MDA-MB-231 > 9.27 µM | MOLT-4 2.89 µM | NCI-H522 2.27 µM | NCI/ADR-RES > 10 µM | OVCAR-4 1.87 µM | RXF 393 4.97 µM | SF-268 > 10 µM | SK-MEL-2 > 10 µM | SK-MEL-5 > 10 µM | SNB-19 > 10 µM | SR 3.64 µM | SW-620 1.89 µM | UACC-257 > 8.15 µM
